One block for each compound: values may come before it.
Experiments:
Type in all cases: functional, cell-based
[1] = molecular target: T1, Solute carrier family 22 member 2 (Homo sapiens, UniProt O15244); assay: TP_TRANSPORTER: uptake in OCT2A-expressing HEK293 cells
T1 sequence (O15244 whole entry): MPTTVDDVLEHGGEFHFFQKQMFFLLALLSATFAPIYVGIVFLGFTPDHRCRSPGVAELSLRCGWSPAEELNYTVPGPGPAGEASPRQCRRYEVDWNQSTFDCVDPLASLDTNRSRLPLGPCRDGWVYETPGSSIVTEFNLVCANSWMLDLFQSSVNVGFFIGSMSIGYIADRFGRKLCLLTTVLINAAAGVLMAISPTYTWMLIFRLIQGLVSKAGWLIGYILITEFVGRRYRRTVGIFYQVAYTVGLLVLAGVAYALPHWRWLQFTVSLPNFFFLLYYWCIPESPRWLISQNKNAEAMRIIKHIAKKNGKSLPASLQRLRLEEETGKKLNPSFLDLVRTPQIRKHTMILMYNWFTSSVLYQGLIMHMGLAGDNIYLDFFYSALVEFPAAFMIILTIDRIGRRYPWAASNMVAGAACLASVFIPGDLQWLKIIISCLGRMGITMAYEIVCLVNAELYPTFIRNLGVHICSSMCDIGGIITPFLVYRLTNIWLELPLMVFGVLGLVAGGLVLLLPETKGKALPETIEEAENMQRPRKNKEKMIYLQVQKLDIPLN

[2] = molecular target: T1, Solute carrier family 22 member 2; assay: TP_TRANSPORTER: inhibition of TEA uptake (TEA: 5 uM, MPP+: 1000 uM) in OCT2A-expressing HEK293 cells; details: hek293, 1000 µM
[3] = molecular target: T1, Solute carrier family 22 member 2; assay: TP_TRANSPORTER: inhibition of TEA uptake (TEA: 5 uM, N-acetyl procainamide: 1000 uM) in OCT2-expressing HEK293 cells; details: hek293, 1000 µM
[4] = molecular target: T1, Solute carrier family 22 member 2; assay: TP_TRANSPORTER: inhibition of TEA uptake (TEA: 5 uM, N-acetyl procainamide: 1000 uM) in OCT2A-expressing HEK293 cells; details: hek293, 1000 µM
[5] = molecular target: T1, Solute carrier family 22 member 2; assay: TP_TRANSPORTER: inhibition of TEA uptake (TEA: 5 uM, Amantadine: 100 uM) in OCT2A-expressing HEK293 cells; details: hek293, 100 µM
[6] = molecular target: T1, Solute carrier family 22 member 2; assay: TP_TRANSPORTER: inhibition of TEA uptake (TEA: 5 uM, Creatinine: 1000 uM) in OCT2-expressing HEK293 cells; details: hek293, 1000 µM
[7] = molecular target: T1, Solute carrier family 22 member 2; assay: TP_TRANSPORTER: inhibition of TEA uptake (TEA: 5 uM, Creatinine: 1000 uM) in OCT2A-expressing HEK293 cells; details: hek293, 1000 µM
[8] = molecular target: T1, Solute carrier family 22 member 2; assay: TP_TRANSPORTER: inhibition of TEA uptake (TEA: 5 uM, GPFX: 2500 uM) in OCT2-expressing HEK293 cells; details: hek293, 2500 µM
[9] = molecular target: T1, Solute carrier family 22 member 2; assay: TP_TRANSPORTER: inhibition of TEA uptake (TEA: 5 uM, GPFX: 2500 uM) in OCT2A-expressing HEK293 cells; details: hek293, 2500 µM
[10] = molecular target: T1, Solute carrier family 22 member 2; assay: TP_TRANSPORTER: inhibition of TEA uptake (TEA: 5 uM, Guanidine: 1000 uM) in OCT2-expressing HEK293 cells; details: hek293, 1000 µM
[11] = molecular target: T1, Solute carrier family 22 member 2; assay: TP_TRANSPORTER: uptake in OCT2-expressing HEK293 cells
[12] = molecular target: T1, Solute carrier family 22 member 2; assay: TP_TRANSPORTER: inhibition of TEA uptake (TEA: 5 uM, Guanidine: 1000 uM) in OCT2A-expressing HEK293 cells; details: hek293, 1000 µM
[13] = molecular target: T1, Solute carrier family 22 member 2; assay: TP_TRANSPORTER: inhibition of TEA uptake (TEA: 5 uM, Imipramine: 1000 uM) in OCT2-expressing HEK293 cells; details: hek293, 1000 µM
[14] = molecular target: T1, Solute carrier family 22 member 2; assay: TP_TRANSPORTER: inhibition of TEA uptake (TEA: 5 uM, Imipramine: 1000 uM) in OCT2A-expressing HEK293 cells; details: hek293, 1000 µM
[15] = molecular target: T1, Solute carrier family 22 member 2; assay: TP_TRANSPORTER: inhibition of TEA uptake (TEA: 5 uM, Levofloxacin: 2500 uM) in OCT2A-expressing HEK293 cells; details: hek293, 2500 µM
[16] = molecular target: T1, Solute carrier family 22 member 2; assay: TP_TRANSPORTER: inhibition of TEA uptake (TEA: 5 uM, Levofloxacin: 2500 uM) in OCT2-expressing HEK293 cells; details: hek293, 2500 µM
[17] = molecular target: T1, Solute carrier family 22 member 2; assay: TP_TRANSPORTER: inhibition of TEA uptake (TEA: 5 uM, NMN: 1000 uM) in OCT2A-expressing HEK293 cells; details: hek293, 1000 µM
[18] = molecular target: T1, Solute carrier family 22 member 2; assay: TP_TRANSPORTER: inhibition of TEA uptake (TEA: 5 uM, Noradrenaline: 1000 uM) in OCT2A-expressing HEK293 cells; details: hek293, 1000 µM
[19] = molecular target: T1, Solute carrier family 22 member 2; assay: TP_TRANSPORTER: inhibition of TEA uptake (TEA: 5 uM, Noradrenaline: 1000 uM) in OCT2-expressing HEK293 cells; details: hek293, 1000 µM
[20] = molecular target: T1, Solute carrier family 22 member 2; assay: TP_TRANSPORTER: inhibition of TEA uptake (TEA: 5 uM, Procainamide: 1000 uM) in OCT2A-expressing HEK293 cells; details: hek293, 1000 µM
[21] = molecular target: T1, Solute carrier family 22 member 2; assay: TP_TRANSPORTER: inhibition of TEA uptake (TEA: 5 uM, Procainamide: 1000 uM) in OCT2-expressing HEK293 cells; details: hek293, 1000 µM
[22] = molecular target: T1, Solute carrier family 22 member 2; assay: TP_TRANSPORTER: inhibition of TEA uptake (TEA: 5 uM, Serotonin: 1000 uM) in OCT2A-expressing HEK293 cells; details: hek293, 1000 µM
[23] = molecular target: T1, Solute carrier family 22 member 2; assay: TP_TRANSPORTER: inhibition of TEA uptake (TEA: 5 uM, Serotonin: 1000 uM) in OCT2-expressing HEK293 cells; details: hek293, 1000 µM

SMILES: C[n+]1ccc(-c2ccccc2)cc1
- Activity [1]: substrate [+]
- Activity [2]: inhibitor [(at a rough estimate) 5 % of control]

- Activity [3]: is not an inhibitor [-]
SMILES: CCN(CC)CCNC(=O)c1ccc(NC(C)=O)cc1 [ACECAINIDE]
- Activity [4]: inhibitor [(at a rough estimate) 15 % of control]

SMILES: NC12CC3CC(CC(C3)C1)C2 [AMANTADINE]
- Activity [5]: inhibitor [(at a rough estimate) 5 % of control]

SMILES: CN/C(=N/CCSCc1nc[nH]c1C)NC#N [CIMETIDINE]
- Activity [1]: is not a substrate [-]

SMILES: CN1CC(=O)NC1=N [CREATININE]
- Activity [6]: inhibitor [(at a rough estimate) 80 % of control]
- Activity [7]: inhibitor [(at a rough estimate) 95 % of control]

SMILES: Cc1c(F)c(N2CCNC(C)C2)cc2c1c(=O)c(C(=O)O)cn2C1CC1 (centres undefined) [GREPAFLOXACIN]
- Activity [8]: inhibitor [(at a rough estimate) 30 % of control]
- Activity [9]: inhibitor [(at a rough estimate) 5 % of control]

- Activity [11]: substrate [+]
- Activity [1]: is not a substrate [-]
SMILES: N=C(N)N [GUANIDINE]
- Activity [10]: inhibitor [(at a rough estimate) 60 % of control]
- Activity [12]: inhibitor [(at a rough estimate) 80 % of control]

SMILES: CN(C)CCCN1c2ccccc2CCc2ccccc21 [IMIPRAMINE]
- Activity [13]: inhibitor [(at a rough estimate) 10 % of control]
- Activity [14]: inhibitor [(at a rough estimate) 5 % of control]

- Activity [11]: is not a substrate [-]
- Activity [1]: is not a substrate [-]
- Activity [16]: is not an inhibitor [-]
SMILES: C[C@H]1COc2c(N3CCN(C)CC3)c(F)cc3c(=O)c(C(=O)O)cn1c23.C[C@H]1COc2c(N3CCN(C)CC3)c(F)cc3c(=O)c(C(=O)O)cn1c23.O [LEVOFLOXACIN]
- Activity [15]: inhibitor [(at a rough estimate) 25 % of control]

SMILES: CNC(=O)c1cccnc1 [NICOTINYL METHYLAMIDE]
- Activity [17]: inhibitor [(at a rough estimate) 30 % of control]

- Activity [18]: is not an inhibitor [-]
SMILES: NC[C@H](O)c1ccc(O)c(O)c1 [NOREPINEPHRINE]
- Activity [19]: inhibitor [(at a rough estimate) 65 % of control]

- Activity [21]: is not an inhibitor [-]
SMILES: CCN(CC)CCNC(=O)c1ccc(N)cc1 [PROCAINAMIDE]
- Activity [20]: inhibitor [(at a rough estimate) 15 % of control]

SMILES: NCCc1c[nH]c2ccc(O)cc12 [SEROTONIN]
- Activity [22]: inhibitor [(at a rough estimate) 35 % of control]
- Activity [23]: inhibitor [(at a rough estimate) 55 % of control]

- Activity [11]: is not a substrate [-]
- Activity [1]: is not a substrate [-]
SMILES: Cc1cn([C@H]2C[C@H](N=[N+]=[N-])[C@@H](CO)O2)c(=O)[nH]c1=O [ZIDOVUDINE]
